No end group written: not given here.
What follows are substances tested on trypsin biosynthesis in the midgut of female Aedes aegypti (assay: Trypsin biosynthesis in blood-fed female mosquitoes injected with peptide (whole mosquitos)). Settings: whole blood-fed females, injected 0.25 μl, 10^−6 M peptide, midguts assayed 30 hours later.
Type: in vivo
Excerpt: To find out if NPF I and II affect trypsin biosynthesis in the midgut of female Aedes aegypti, […] were removed and assayed for trypsin biosynthesis (Borovsky el al., 1990 “Mosquito Oostatic Factor: A Novel Decapeptide Modulating Trypsin-Like Enzyme Biosynthesis in the Midgut” FASEB J. 4:3015-3020; Borovsky et al. 1993 “Mass Spectrometry and Characterization of Aedes aegypti Trypsin Modulating Oostatic Factor (TMOF) and its Analog” Insect Biochem. Molec. Biol. 23:703-712). Each experiment was repeated 3 times (5 females per group) and the results are expressed as % inhibition of trypsin biosynthesis±S.E.M. (FIG. 1).
“Ala-Pro-Ser-Leu-Arg-Leu-Arg-Phe-amide (APSLRLRF-NH2) [NPF II, amidated neuropeptide NPF II, native to the Colorado potato beetle]” was tested, and the “% inhibition of trypsin biosynthesis” value was 35%.

These substances were tested on first instar Aedes aegypti larvae (assay: Effect of NPF polypeptides on Aedes aegypti larvae (ingestion, mortality)). Settings: microtiter plate, peptide 2 mg/ml to 0.04 mg/ml with Brewer's yeast, mortality at 24 hour intervals for 3 to 7 days, read-out: LC50 (mM) ± SEM.
Type: in vivo
Excerpt: NPF polypeptides sharing sequence homology with NPF I and NPF II of the Colorado potato beetle (Leptinotarsa decemlineata) (Spittaels, et al. Insect Biochem. Mol. Biol., 26 (4):375-382, 1996) have been identified in the American cockroach (Periplaneta americana) (Veenstra and Lambrou, Biochem. Biophys. Res. Commun., 213 (2):519-524, 1995), mosquito (Aedes aegypti) (Stanek et al., Display Presentation, Entomological Society of America Annual Meeting, Montreal, Canada, Dec. 3-6, 2000), and fruit fly (Drosophila melanogaster), and their pesticidal activity was confirmed. Synthesized polypeptides corresponding to the native polypeptides of Colorado potato beetle (SEQ ID NO. 1), mosquito (SEQ ID NOs. 5 and 7), American cockroach (SEQ ID NOs. 9 and 11), and fruit fly (SEQ ID NOs. 13 and 15) were provided to first instar Aedes aegypti larvae for ingestion. Non-amidated versions of SEQ ID NOs. 5, 7, 9, 11, 13, and 15 (SEQ ID NOs. 6, 8, 10, 12, 14, and 16, respectively), as well as other functional equivalents (SEQ ID NOs. 17-24), were also provided for ingestion.
First instar Aedes aegypti larvae were assayed in a microtiter plate in 188 μl solution containing 160 μl of water, 10 μl of 2% Brewer's yeast, and NPF polypeptides of the subject invention at concentrations of 2 mg/ml to 0.04 mg/ml (Table 2). Mortality was determined at 24 hour intervals for 3 to 7 days. Controls were run with yeast solution lacking the NPF polypeptide.
“RPPTRFRF-NH2 [SEQ ID NO. 5, Arg-Pro-Pro-Thr-Arg-Phe-Arg-Phe-amide]” gave an LC50 of 0.61 ± 0.018 mM. Substance “ANRSPSLRLRF-NH2 [SEQ ID NO. 9, Ala-Asn-Arg-Ser-Pro-Ser-Leu-Arg-Leu-Arg-Phe-amide]” has an LC50 of 0.135 ± 0.06 mM. “ADRSPSLRLRF-NH2 [SEQ ID NO. 11, Ala-Asp-Arg-Ser-Pro-Ser-Leu-Arg-Leu-Arg-Phe-amide]” gave an LC50 of 0.65 ± 0.03 mM. For “AQRSPSLRLRF-NH2 [SEQ ID NO. 15, Ala-Gln-Arg-Ser-Pro-Ser-Leu-Arg-Leu-Arg-Phe-amide]”, the LC50 was 1.03 ± 0.1 mM. “LRLRF-NH2 [SEQ ID NO. 21, Leu-Arg-Leu-Arg-Phe-amide]” gave an LC50 greater than 2.8 mM. Substance “RSPSLRLRF-NH2 [SEQ ID NO. 17, Arg-Ser-Pro-Ser-Leu-Arg-Leu-Arg-Phe-amide]” has an LC50 of 0.82 ± 0.07 mM. Substance “PIRSPSLRLRF-NH2 [SEQ ID NO. 13, Pro-Ile-Arg-Ser-Pro-Ser-Leu-Arg-Leu-Arg-Phe-amide]” has an LC50 of 0.589 ± 0.04 mM. In the case of “APQLRLRF-NH2 [SEQ ID NO. 7, Ala-Pro-Gln-Leu-Arg-Leu-Arg-Phe-amide]”, the LC50 is reported as 0.8 ± 0.06 mM. “ARGPQLRLRF-NH2 [SEQ ID NO. 1, Ala-Arg-Gly-Pro-Gln-Leu-Arg-Leu-Arg-Phe-amide]” was tested, and the LC50 was 0.65 ± 0.04 mM. Work on “PSLRLRF-NH2 [SEQ ID NO. 19, Pro-Ser-Leu-Arg-Leu-Arg-Phe-amide]” yielded an LC50 greater than 2.25 mM.
